Values quoted from earlier work as cited in patent US20030212034A1, “Method of treatment of obesity and paralyzed muscle and ergogenic aids” (priority 2002, published 2003).

System: AMPK
Conditions: analogues of 5′-AMP; Hardie & Carling 1997; cited from earlier work

Row | SMILES | potency of AMPK activation in vitro
1 | Nc1ncnc2c([C@@H]3O[C@H](COP(=O)(O)O)[C@@H](O)[C@H]3O)[nH]nc12 [Formycin A 5′-monophosphate] | less potently
2 | NC(=O)c1ncn([C@@H]2O[C@H](COP(=O)(O)O)[C@@H](O)[C@H]2O)c1N [ZMP] | less potently
3 | Nc1ncnc2c1ncn2[C@@H]1O[C@H](COP(N)(=O)O)[C@@H](O)[C@H]1O [adenosine 5′-phosphoramidate] | more potently
4 | Nc1ncnc2c1ncn2[C@@H]1O[C@H](COP(O)(O)=S)[C@@H](O)[C@H]1O [adenosine-5′-thiomonophosphate] | more potently
